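Five compound concentrations were applied to cells in 96-well plates for 48 hours; endpoints were derived by simple linear interpolation of the resulting dose-response curve. At the GI50, growth is halved.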 The source made the active and inactive calls. Cut-off read from the data, not from the text of the source: active = GI50 up to about 1.1 µM and inactive = higher.
Tests used:
Test in all cases: NCI anticancer screen, dose series, 48 h
[1] = system: SK-MEL-2
[2] = system: IGROV-1
[3] = system: NCI-H23
[4] = system: SW-620
[5] = system: TK-10
[6] = system: PC-3
[7] = system: HOP-92
[8] = system: HL-60
[9] = system: HCC 2998
[10] = system: COLO 205
[11] = system: EKVX
[12] = system: ACHN
[13] = system: OVCAR-8
[14] = system: MOLT-4
[15] = system: M14
[16] = system: SK-MEL-5
[17] = system: LOX IMVI
[18] = system: Hs-578T
[19] = system: RXF 393
[20] = system: NCI-H460

Measured: GI50

COC(=O)C1(Cc2ccc3c(c2)CCC3)Cc2cc3c(cc2C1=O)CCC3 (stereo not given)
inactive: [1] 17.1 µM | [2] 24.4 µM | [3] 22 µM | [4] 16.9 µM | [5] > 46.5 µM | [6] 17.9 µM | [7] 7.74 µM | [8] 6.67 µM | [9] 22.1 µM | [10] 15.4 µM | [11] 21.3 µM | [12] 37.2 µM | [13] 27.2 µM | [14] 16.5 µM | [15] 20.8 µM | [16] 14.3 µM | [17] 25.1 µM | [18] 33 µM | [19] 29.4 µM | [20] 15.3 µM

CC1=NN2C(=N)/C(=C/c3ccc(F)cc3)C(=O)N=C2S1
inactive: [1] > 100 µM | [2] > 100 µM | [3] > 100 µM | [4] > 100 µM | [5] > 100 µM | [6] > 100 µM | [7] 47.9 µM | [8] > 100 µM | [9] 44.4 µM | [10] > 100 µM | [11] > 100 µM | [12] > 100 µM | [13] > 100 µM | [14] > 100 µM | [15] > 100 µM | [16] > 100 µM | [17] > 100 µM | [18] > 100 µM | [19] > 100 µM | [20] > 100 µM

COC(=O)[C@]12CC[C@H]3CC[C@H]([C@H]31)[C@H](c1ccccc1)N2
inactive: [1] 15.2 µM | [2] 17 µM | [3] 16.8 µM | [4] 22.2 µM | [5] 17.2 µM | [6] 16.3 µM | [7] 15.8 µM | [8] 19.1 µM | [9] 13.5 µM | [10] 16.5 µM | [11] 16.8 µM | [12] 17.6 µM | [13] 17.4 µM | [14] 12.9 µM | [15] 17.9 µM | [16] 14.7 µM | [17] 17.3 µM | [18] 23 µM | [19] 14.2 µM | [20] 15.9 µM

CC(C)OP(=O)(CN(C)/C(F)=N\C(F)(F)F)OC(C)C
inactive: [1] > 100 µM | [2] > 100 µM | [3] > 100 µM | [4] > 100 µM | [5] > 100 µM | [6] > 100 µM | [7] > 100 µM | [8] 63.8 µM | [9] > 100 µM | [10] > 100 µM | [11] > 100 µM | [12] > 100 µM | [13] > 100 µM | [14] > 100 µM | [15] > 100 µM | [16] > 100 µM | [17] > 100 µM | [18] > 100 µM | [19] > 100 µM | [20] > 100 µM

CC1=C(C)C2(C#N)C(=O)N3C(=NC(c4ccco4)NC3c3ccco3)C2(C#N)C(c2ccco2)N1 (stereo not given)
inactive: [1] > 100 µM | [2] > 100 µM | [3] > 100 µM | [4] > 100 µM | [5] > 100 µM | [6] > 100 µM | [7] > 100 µM | [8] > 100 µM | [9] > 100 µM | [10] > 100 µM | [11] > 100 µM | [12] > 100 µM | [13] > 100 µM | [14] > 100 µM | [15] > 100 µM | [16] > 100 µM | [17] > 100 µM | [18] > 100 µM | [19] > 100 µM | [20] > 100 µM

O=c1[nH]nc(-c2ccccc2)n1O
inactive: [1] > 100 µM | [2] > 100 µM | [3] > 100 µM | [4] > 100 µM | [5] > 100 µM | [6] > 100 µM | [7] > 100 µM | [8] > 100 µM | [9] > 100 µM | [10] > 100 µM | [11] > 100 µM | [12] > 100 µM | [13] > 100 µM | [14] > 100 µM | [15] > 100 µM | [16] > 100 µM | [17] > 100 µM | [18] > 100 µM | [19] > 100 µM | [20] > 100 µM

CC(C)Cc1ccc(C(C)/C=C2\CCC(CN(C)C)C2=O)cc1 (stereo not given)
inactive: [1] 14.4 µM | [2] 9.73 µM | [3] 12.6 µM | [4] 6.82 µM | [5] 9.23 µM | [6] 10.5 µM | [7] 19 µM | [8] 5.61 µM | [9] 16.8 µM | [10] 11.6 µM | [11] 19.9 µM | [12] 19.4 µM | [13] 9.38 µM | [14] 2.64 µM | [15] 12.9 µM | [16] 11.7 µM | [17] 6.97 µM | [18] 2.74 µM | [19] 20.1 µM | [20] 20 µM

NC(Cc1ccnnc1)C(=O)O (stereo not given)
inactive: [1] > 100 µM | [2] > 100 µM | [3] > 100 µM | [4] > 100 µM | [5] > 100 µM | [6] > 100 µM | [7] > 100 µM | [8] > 100 µM | [9] > 100 µM | [10] > 100 µM | [11] > 100 µM | [12] > 100 µM | [13] > 100 µM | [14] > 100 µM | [15] > 100 µM | [16] > 100 µM | [17] > 100 µM | [18] > 100 µM | [19] > 100 µM | [20] > 100 µM

CCOc1cc2c(cc1O)CC[C@@H]1[C@@H]2CC[C@]2(C)C(N)CC[C@@H]12 (stereo not given in full)
inactive: [1] 4.32 µM | [2] 3.78 µM | [3] 3.48 µM | [4] 3.04 µM | [5] 9.2 µM | [6] 2.93 µM | [7] 10.6 µM | [8] 1.42 µM | [9] 2.22 µM | [10] 4.49 µM | [11] 4.27 µM | [12] 4.58 µM | [13] 2.71 µM | [14] 5.93 µM | [15] 4.05 µM | [16] 3.56 µM | [17] 4.06 µM | [18] 3.67 µM | [19] 1.21 µM | [20] 2.91 µM

C[C@@H](C[C@H]1OC(C)(C)O[C@@H]1C(C)(C)O)[C@H]1CC=C2[C@]3(C)[C@H](O)C[C@H]4C(C)(C)[C@H](O)CC[C@]4(C)[C@H]3CC[C@]21C
inactive: [1] 11.5 µM | [2] 11.9 µM | [3] 9.86 µM | [4] 10.7 µM | [5] 11.7 µM | [6] 5.05 µM | [7] 6.21 µM | [8] 2.62 µM | [9] 7.08 µM | [10] 5.26 µM | [11] 9.98 µM | [12] 8.15 µM | [13] 11.6 µM | [14] 4.52 µM | [15] 9.29 µM | [16] 7.36 µM | [17] 8.13 µM | [18] 7.33 µM | [19] 6.44 µM | [20] 6.44 µM

— ChEMBL document CHEMBL1201862, “PubChem BioAssay data set” (2004)
